Reference: patent US20240269144A1, “METHODS AND KITS FOR THE DETECTION OF MALIGNANCIES” (H. LEE MOFFITT CANCER CENTER AND RESEARCH INSTITUTE, INC., priority 2021, published 2024)
Read-outs that look alike come from different tables or passages of the source.

Key:
malignant T cells = assay: EVOS drug assay (Cytolight Rapid Green / Cytox Red) on malignant T cells; assay type: cell-based
Description: FIGS. 9A, 9B, 9C, and 9D show the effects various anti-cancer agents on malignant T cells. Cells are stained green with the Cytolight Rapid Green Dye—freely pass thru the membrane, however, once inside the dye is transformed into cell-impermeant probe transferred to daughter cells. Once the cells have been stained the dye is removed. Stains live cells. Then the Cytox Red is added and left in the media. Cytox Red moves inside the cells when the cell membrane is compromised. Assays were read at 0, 6, 12, 18 and 24 hrs. Each timepoint is analyzed separately for the designated concentration of Palbociclib (CDK4/6 inhibitor)(9A), Omacetaxine mepesuccinate (HHT)(9B), CX5461 (rRNA synthesis inhibitor)(9C), or BTZO-1 (MIF inhibitor)(9D).
To see the effect of various inhibitors on malignant T cells, we an EVOS drug assay (FIG. 9) measuring varying concentrations and time points for Palbociclib (CDK4/6 inhibitor)(FIG. 9A), Omacetaxine mepesuccinate (HHT)(FIG. 9B), CX5461 (rRNA synthesis inhibitor)(FIG. 9C), and BTZO-1 (MIF inhibitor)(FIG. 9D). By 12 hours, killing of malignant T cells was observed reaching a maximum for all drugs by […].

[1] = tested on: T-cell lymphoma lines Myla (MF), HH (MF—leukemic phase), Hu78 (SS); assay: OXPHOS inhibitor apoptosis assay (Annexin V/PI), T-cell lymphoma cell lines; assay type: cell-based
[2] = tested on: acute myeloid leukemia and mantle cell lymphoma tumor cells; settings: pre-clinical models of acute myeloid leukemia and mantle cell lymphoma; cited from earlier work
[3] = tested on: T-cell lymphoma lines Myla (MF), HH (MF—leukemic phase), Hu78 (SS)
Description: MYC inhibitor (MYCi975) cell proliferation assay (right). Indicated cell lines were seeded on 96-well plates and treated with different dose of MYCi975 for 5 days. At day 5, cells were incubated with MTS reagent following manufacture's protocol (Promega Cat #G3580). Absorbance at OD490 nm was recorded and percentage of growth were normalized to vehicle control. Half maximal inhibitory concentration (IC50) was calculated based on curve fitting result using non-linear regression function of GraphPad Prism 8. The symbol represents the mean. The error bars represent the mean±s.e.m. n=12 (MyLa and Jurkat); n=8 (HH, MJ, Hu78).
To determine the sensitivity of CTCL and other T cell lymphomas to OXPHOS and MYC inhibition, we performed pharmacologic perturbation assays using IACS10759 and MYCi975 in MF and other TCL cell lines (FIG. 4F).
Established T-cell lymphoma lines were used for drug assays, including Myla (MF; Sigma Aldrich Cat #95051032), HH (MF—leukemic phase; ATCC Cat #CRL-2105), and Hu78 (SS; ATCC Cat #TIB-161), Jurkat (ATLL) and MJ (ATLL; ATCC Cat #8294).

MYC = MYC (Homo sapiens, UniProt P01106); settings: cited from earlier work
CTCL = settings: MAVORIC trial, cited from earlier work
[4] = malignant T cells, at maximum killing
[5] = in vitro pharmacologic studies, CTCL cell lines

Chain of MYC (P01106 whole entry, species assumed): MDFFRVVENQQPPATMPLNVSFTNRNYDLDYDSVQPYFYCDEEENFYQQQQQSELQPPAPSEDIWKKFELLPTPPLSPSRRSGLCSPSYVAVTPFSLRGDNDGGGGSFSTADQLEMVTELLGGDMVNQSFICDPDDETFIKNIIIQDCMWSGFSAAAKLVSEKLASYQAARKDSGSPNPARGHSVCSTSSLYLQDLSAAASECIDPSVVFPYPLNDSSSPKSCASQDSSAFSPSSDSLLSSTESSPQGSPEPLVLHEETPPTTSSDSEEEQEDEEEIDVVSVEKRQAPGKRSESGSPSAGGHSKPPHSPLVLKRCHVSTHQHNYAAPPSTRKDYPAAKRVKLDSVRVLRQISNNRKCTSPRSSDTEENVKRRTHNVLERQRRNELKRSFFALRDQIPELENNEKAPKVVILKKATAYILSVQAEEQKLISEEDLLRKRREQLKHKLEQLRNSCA

Molecule: O=c1nc(-c2ccccn2)sc2ccccc12 [BTZO-1]
- target cells remaining viable after treatment (malignant T cells): 50%

Molecule: Cc1cnc(CNC(=O)c2c(=O)c3ccc(N4CCCN(C)CC4)nc3n3c2sc2ccccc23)cn1 [CX5461]
- target cells remaining viable after treatment (malignant T cells; [4]): 60-70%

Molecule: COC(=O)C[C@](O)(CCCC(C)(C)O)C(=O)O[C@@H]1C(OC)=C[C@]23CCCN2CCc2cc4c(cc2[C@H]13)OCO4 [HHT, Omacetaxine mepesuccinate]
- target cells remaining viable after treatment (malignant T cells; [4]): 50%

Molecule: Cc1nc(-c2nc(-c3ccc(OC(F)(F)F)cc3)no2)nn1Cc1cccc(N2CCC(S(C)(=O)=O)CC2)c1 [IACS-010759]
- sensitivity to IACS-010759 as assessed by apoptosis ([1]; Myla, HH, Hu78, particularly for Myla, 8 nM, 5 days, Annexin V+PI+): low nanomolar sensitivity
- anti-tumor activity in vitro (OXPHOS inhibitor) [1, 5]: potent anti-tumor activity
- effect of OXPHOS inhibition on tumor cells [2]: inhibition of tumor cell proliferation and induction of apoptosis

Molecule: Cn1nc(C(F)(F)F)cc1-c1ccc(OCc2ccc(Cl)cc2)c(-c2ccc(Cl)c(C(F)(F)F)c2)c1O [MYCi975]
- sensitivity to MYCi975 as assessed by cell proliferation, cell viability and cytotoxicity (MTS assay) [3]: low micromolar sensitivity
- anti-tumor activity in vitro (MYC inhibitor) [3, 5]: potent anti-tumor activity
- preclinical in-vivo activity against MYC (MYC): potent preclinical in-vivo activity against MYC

Molecule: CC(=O)c1c(C)c2cnc(Nc3ccc(N4CCNCC4)cn3)nc2n(C2CCCC2)c1=O [Palbociclib]
- target cells remaining viable after treatment (malignant T cells; [4]): 50%

B1: mogamulizumab: anti-CCR4, FDA approved breakthrough therapy for CTCL (antibody, chains of the INN, looked up, V domains shown)
VH: EVQLVESGGDLVQPGRSLRLSCAASGFIFSNYGMSWVRQAPGKGLEWVATISSASTYSYYPDSVKGRFTISRDNAKNSLYLQMNSLRVEDTALYYCGRHSDGNFAFGYWGQGTLVTVSS
VL: DVLMTQSPLSLPVTPGEPASISCRSSRNIVHINGDTYLEWYLQKPGQSPQLLIYKVSNRFSGVPDRFSGSGSGTDFTLKISRVEAEDVGVYYCFQGSLLPWTFGQGTKVEIK
- responses in blood, % of patients (CTCL; blood compartment): 49.2%
- responses in skin, % of patients (CTCL; skin compartment): 27.4%
- ORR (CTCL; mogamulizumab monotherapy, at ≥4 months (b5), at 4 months): 25.3%
- median PFS (CTCL; mogamulizumab monotherapy): 7.8 months
